ChEMBL document CHEMBL6177981, “Bardoxolone Derivatives as Novel Pseudo-Natural Necroptosis Inhibitors by Destabilizing HSP90 Client Proteins” (J Med Chem, 2025)
The source made the active and inactive calls. No cut-off for these calls is given here.

How the values were obtained:
Mus musculus [1] = test: (§1) Anti-necroptotic activity in TNFalpha/Z-VAD-FMK induced SIRS male C57BL/6J mouse model assessed as reduction in IL-1beta in spleen at 5 to 10 mg/kg, po pre-administered with compound via gavage for 2 hrs followed by […] of Z-VAD-FMK stimulation for 15 mins with subsequent TNF-alpha stimulation for 1 hrs and re-current […] of Z-VAD-FMK stimulation and measured after 8 hrs post SIRS induction by ELISA; assay type: functional, organism-based; conditions: dose 5-10 mg/kg, time 10.0 hrs
L929 [2] = test: Anti-necroptotic activity in TZ-induced mouse L929 cells assessed as increase in cell viability preincubated with Z-VAD-FMK followed by mTNFalpha stimulation for 4 hrs and measured after compound addition by CellTiter-Lumi luminescent cell viability assay; assay type: functional, cell-based
HT-29 [3] = test: Downregulation of RIPK1 protein level in human HT-29 cells at 3 to 6 uM incubated for 9 hrs by Western blot analysis; assay type: functional, cell-based; conditions: dose 3-6 µM
[4] = Acute toxicity in male C57BL/6J mouse assessed as inflammatory cell infiltration in intestine at 2 g/Kg, IG measured after 72 hrs by H and E staining based analysis; assay type: tissue-based; conditions: in vivo, po, 2000 mg/kg
Mus musculus [5] = test: as §1, with “IL6” for “IL-1beta”; assay type: functional, organism-based; conditions: dose 5-10 mg/kg, time 10.0 hrs
[6] = Acute toxicity in male C57BL/6J mouse assessed as inflammatory cell infiltration in stomach at 2 g/Kg, IG measured after 72 hrs by H and E staining based analysis; assay type: tissue-based; conditions: in vivo, po, 2000 mg/kg
[7] = AUC (0 to 24 hrs) in Sprague-Dawley rat at 2 mg/kg, iv measured after 24 hrs by LC-MS/MS analysis; assay type: ADME, organism-based; conditions: in vivo
[8] = Acute toxicity in male C57BL/6J mouse assessed as structural changes in stomach at 2 g/Kg, IG measured after 72 hrs by H and E staining based analysis; assay type: tissue-based; conditions: in vivo, po, 2000 mg/kg
[9] = Acute toxicity in male C57BL/6J mouse assessed as survival at 2 g/Kg, po measured within 72 hrs relative to control; assay type: organism-based; conditions: in vivo, 2000 mg/kg
L929 [10] = test: Anti-necroptotic activity in TZ-induced mouse L929 cells assessed as increase in cell survival at 10 uM measured after 12 hrs by Live-cell super-resolution panoramic microscopic analysis; assay type: functional, cell-based
HT-29 [11] = test: Downregulation of MLKL protein level in human HT-29 cells at 6 uM preincubated with Z-VAD-FMK for 2 hrs followed by compound addition and measured after 9 hrs by Western blot analysis; assay type: functional, cell-based
[12] = Acute toxicity in male C57BL/6J mouse assessed as effect on creatinine level at 2 g/Kg, IG measured after 72 hrs; conditions: in vivo, po, 2000 mg/kg
EOL1 = test: Anti-necroptotic activity in TSZ-induced human EOL1 cells assessed as increase in cell viability at 2.5 to 20 uM preincubated with compound followed by Z-VAD-FMK, SM164 and TNFalpha addition and measured after 7 hrs by CellTiter-Lumi luminescent cell viability assay relative to control; assay type: functional; conditions: dose 2.5-20 µM
[13] = Cmax in Sprague-Dawley rat at 2 mg/kg, iv measured after 24 hrs by LC-MS/MS analysis; assay type: ADME, organism-based; conditions: in vivo
[14] = Acute toxicity in male C57BL/6J mouse assessed as structural changes in brain at 2 g/Kg, IG measured after 72 hrs by H and E staining based analysis; assay type: tissue-based; conditions: in vivo, po, 2000 mg/kg
HT-29 [15] = test: Downregulation of MLKL protein level in human HT-29 cells at 6 uM preincubated with NH4Cl for 2 hrs followed by compound addition and measured after 9 hrs by Western blot analysis; assay type: functional, cell-based
HT-29 [16] = test: Downregulation of RIPK3 protein level in human HT-29 cells incubated for 9 hrs by Western blot analysis; assay type: functional, cell-based; conditions: dose 0.75-6 µM
[17] = Acute toxicity in male C57BL/6J mouse assessed as structural changes in spleen at 2 g/Kg, IG measured after 72 hrs by H and E staining based analysis; assay type: tissue-based; conditions: in vivo, po, 2000 mg/kg
L929 [18] = test: Anti-necroptotic activity in TZ-induced mouse L929 cells assessed as rounded shape cell morphology at 10 uM measured after 12 hrs by Live-cell super-resolution panoramic microscopic analysis; assay type: functional, cell-based
Mus musculus [19] = test: as §1, with “survival rate” for “reduction in IL-1beta in spleen”, “2.5” for “5 to 10”, “relative to control” for “by ELISA”; assay type: functional; conditions: time 10 hrs
[20] = target: Receptor-interacting serine/threonine-protein kinase 3 (Homo sapiens) (UniProt Q9Y572); test: Inhibition of RIPK3 phosphorylation at S227 residue in TSZ-induced human HT-29 cells at 10 uM preincubated with compound followed by Z-VAD-FMK, SM164 and TNFalpha stimulation and measured after 6 hrs by Western blot analysis; assay type: cell-based
HT-29 [21] = test: Downregulation of RIPK1 protein level in human HT-29 cells at 6 uM preincubated with MG132 for 2 hrs followed by compound addition and measured after 9 hrs by Western blot analysis; assay type: functional, cell-based
HeLa = test: Downregulation of EGFR expression in RIPK3-deficient human HeLa cells at 0.75 to 6 uM incubated for 9 hrs by Western blot analysis; assay type: functional, cell-based; conditions: dose 0.75-6 µM
HT-29 [22] = test: Downregulation of MLKL protein level in human HT-29 cells at 6 uM preincubated with MLN4924 for 2 hrs followed by compound addition and measured after 9 hrs by Western blot analysis; assay type: functional, cell-based
[23] = target: T1, Receptor-interacting serine/threonine-protein kinase 1 (Homo sapiens) (UniProt Q13546); test: Inhibition of RIPK1 phosphorylation in TSZ-induced human HT-29 cells at 10 uM preincubated with compound followed by Z-VAD-FMK, SM164 and TNFalpha stimulation and measured within 6 hrs by Western blot analysis relative to control; assay type: cell-based
T1 sequence (whole entry): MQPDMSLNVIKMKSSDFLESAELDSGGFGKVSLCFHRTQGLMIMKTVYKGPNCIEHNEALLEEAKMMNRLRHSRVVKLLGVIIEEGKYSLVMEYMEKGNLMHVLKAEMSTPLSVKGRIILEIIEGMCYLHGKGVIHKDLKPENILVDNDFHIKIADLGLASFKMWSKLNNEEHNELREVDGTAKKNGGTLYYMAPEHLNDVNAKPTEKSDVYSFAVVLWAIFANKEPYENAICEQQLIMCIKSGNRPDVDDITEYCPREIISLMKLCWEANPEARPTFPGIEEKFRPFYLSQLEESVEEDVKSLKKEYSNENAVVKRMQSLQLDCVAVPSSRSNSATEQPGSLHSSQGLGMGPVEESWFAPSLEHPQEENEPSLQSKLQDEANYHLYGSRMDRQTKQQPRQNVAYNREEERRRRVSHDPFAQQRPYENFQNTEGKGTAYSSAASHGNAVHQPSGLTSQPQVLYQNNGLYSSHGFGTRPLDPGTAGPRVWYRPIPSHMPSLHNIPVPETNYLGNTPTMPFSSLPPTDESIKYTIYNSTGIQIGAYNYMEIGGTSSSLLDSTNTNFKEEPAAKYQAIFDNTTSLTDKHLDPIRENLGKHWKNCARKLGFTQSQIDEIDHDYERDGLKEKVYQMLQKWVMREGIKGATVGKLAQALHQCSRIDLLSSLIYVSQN

HT-29 [24] = test: Effect on cell morphology in TSZ-induced necroptotic human HT-29 cells at 10 uM measured after 12 hrs by Live-cell super-resolution panoramic microscopic analysis; assay type: functional, cell-based

Receptor-interacting serine/threonine-protein kinase 3 (Homo sapiens), sequence (Q9Y572 whole entry, looked up): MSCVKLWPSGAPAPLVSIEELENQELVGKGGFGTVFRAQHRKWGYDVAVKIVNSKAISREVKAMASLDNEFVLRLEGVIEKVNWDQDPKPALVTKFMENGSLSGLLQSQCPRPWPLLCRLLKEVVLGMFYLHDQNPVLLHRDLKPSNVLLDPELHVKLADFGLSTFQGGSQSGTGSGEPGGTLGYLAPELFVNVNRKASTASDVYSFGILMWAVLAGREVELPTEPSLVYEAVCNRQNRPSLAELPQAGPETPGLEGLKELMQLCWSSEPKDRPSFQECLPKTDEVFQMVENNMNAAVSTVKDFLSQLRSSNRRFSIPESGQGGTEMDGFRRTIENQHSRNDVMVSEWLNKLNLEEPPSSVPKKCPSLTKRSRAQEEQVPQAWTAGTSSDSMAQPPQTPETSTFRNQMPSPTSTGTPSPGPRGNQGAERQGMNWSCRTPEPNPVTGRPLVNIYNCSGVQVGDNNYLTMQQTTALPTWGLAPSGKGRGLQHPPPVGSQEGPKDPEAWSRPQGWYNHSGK

## Cn1ccc(-c2ccc(NC(=O)[C@]34CCC(C)(C)C[C@H]3[C@H]3C(=O)C=C5[C@@]6(C)C=C(C#N)C(=O)C(C)(C)[C@@H]6CC[C@@]5(C)[C@]3(C)CC4)cc2)n1
Mus musculus [1]
  Activity: Active
L929 [2]
  EC50: 4.12 µM
HT-29 [3]
  Activity: Active; Significant Effect Observed
[4]
  Activity: Non-toxic
Mus musculus [5]
  Activity: Active
[6]
  Activity: Non-toxic
[7]
  AUC(0-t) at 24 h: 4640 ng·h/mL
[8]
  Activity: Non-toxic
[9]
  survival at 72 h: 100%
L929 [10]
  Activity: Active
HT-29 [11]
  Activity: Active
[12]
  Activity: Non-toxic
EOL1
  Activity: 100%
[13]
  Cmax: 1040 ng/mL
[14]
  Activity: Non-toxic
HT-29 [15]
  Activity: Active
HT-29 [16]
  Activity: Dose-dependent-effect
[17]
  Activity: Non-toxic
L929 [18]
  Activity: Active
Mus musculus [19]
  survival at 2.5 mg/kg: 35%
[20]
  inhibition: Active
HT-29 [21]
  Activity: Active
HeLa
  Activity: Active
HT-29 [22]
  Activity: Active
[23]
  inhibition: 100%
HT-29 [24]
  Activity: Active
